# Source: patent publication US20220402925A1, “COMPOUNDS AND METHODS FOR THE TREATMENT OF CYSTIC FIBROSIS” (Flatley Discovery Lab, LLC, priority 2019, published 2022)
# Biological target: T1, F508del CFTR (Homo sapiens, UniProt P13569, DEL508-508)
# T1 construct: Primary CF airway epithelial cells were obtained from the UNC Cystic Fibrosis Tissue Procurement and Cell Culture Core; host or cells: primary CF airway epithelial cells
# Assay: Equivalent current assay in primary CF airway epithelial cells (Corrector Activity, NAUC normalized to 3 μM VX809)
# Assay type: cell-based
# Conditions: NAUC as % of positive control (VX-809)
# How it was run: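 Readout is NAUC: current area from forskolin/potentiator addition until CFTR-172, minus vehicle, relative to 3 μM VX809 (=1.0). Cells were primary CF epithelia at air-liquid interface ≥4 weeks, given basolateral compound for 24 h at 37° C; median of n≥4 replicates, sigmoid fit with nH fixed at 1.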
# T1 sequence (P13569 with tags, fused parts or gaps DEL508-508): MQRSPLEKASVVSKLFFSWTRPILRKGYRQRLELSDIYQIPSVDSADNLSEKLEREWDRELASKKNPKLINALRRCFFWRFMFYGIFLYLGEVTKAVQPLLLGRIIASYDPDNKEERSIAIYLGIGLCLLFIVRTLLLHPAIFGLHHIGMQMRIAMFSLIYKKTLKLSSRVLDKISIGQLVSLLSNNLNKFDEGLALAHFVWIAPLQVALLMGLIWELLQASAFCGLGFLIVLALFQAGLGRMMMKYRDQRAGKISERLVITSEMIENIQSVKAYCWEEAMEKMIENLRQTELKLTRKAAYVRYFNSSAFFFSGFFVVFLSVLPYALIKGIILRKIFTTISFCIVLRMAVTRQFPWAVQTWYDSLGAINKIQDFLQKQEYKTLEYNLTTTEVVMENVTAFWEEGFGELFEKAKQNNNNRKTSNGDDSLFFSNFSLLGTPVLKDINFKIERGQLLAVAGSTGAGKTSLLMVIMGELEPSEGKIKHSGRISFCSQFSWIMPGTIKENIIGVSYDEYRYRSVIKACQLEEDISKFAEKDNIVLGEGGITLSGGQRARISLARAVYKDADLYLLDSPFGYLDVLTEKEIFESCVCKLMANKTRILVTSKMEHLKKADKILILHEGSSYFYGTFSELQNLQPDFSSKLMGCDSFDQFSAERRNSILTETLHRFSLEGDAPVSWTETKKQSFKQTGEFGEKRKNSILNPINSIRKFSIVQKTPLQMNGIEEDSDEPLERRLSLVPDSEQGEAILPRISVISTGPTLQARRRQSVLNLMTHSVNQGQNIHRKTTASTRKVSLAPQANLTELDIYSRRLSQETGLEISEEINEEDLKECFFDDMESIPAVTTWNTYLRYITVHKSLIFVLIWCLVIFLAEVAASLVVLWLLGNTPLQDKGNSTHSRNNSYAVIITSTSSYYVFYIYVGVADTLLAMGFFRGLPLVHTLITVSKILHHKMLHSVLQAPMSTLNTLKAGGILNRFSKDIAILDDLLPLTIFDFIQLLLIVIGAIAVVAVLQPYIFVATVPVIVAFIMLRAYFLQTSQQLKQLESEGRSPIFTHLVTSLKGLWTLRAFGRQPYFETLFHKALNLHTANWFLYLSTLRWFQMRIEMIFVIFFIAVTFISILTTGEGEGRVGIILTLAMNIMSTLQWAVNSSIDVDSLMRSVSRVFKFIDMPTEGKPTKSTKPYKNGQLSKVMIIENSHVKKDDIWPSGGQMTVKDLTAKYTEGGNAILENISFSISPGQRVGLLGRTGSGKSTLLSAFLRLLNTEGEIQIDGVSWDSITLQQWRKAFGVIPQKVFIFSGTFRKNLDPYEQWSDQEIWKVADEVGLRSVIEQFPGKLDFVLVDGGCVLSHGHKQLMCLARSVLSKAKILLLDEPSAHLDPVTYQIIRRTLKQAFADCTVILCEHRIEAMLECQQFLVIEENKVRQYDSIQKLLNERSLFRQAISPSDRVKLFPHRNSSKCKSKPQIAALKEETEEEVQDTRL
row,SMILES,Corr Activity (NAUC)
1,Cc1cc2c(cc1N(C)C(=O)Cn1nc(-c3cc(Cl)cc(C#N)c3)c3occc3c1=O)OC(F)(F)O2 [Example 168],+++ (NAUC>70% of positive control)
2,CCN(C(=O)Cn1nc(-c2cc(Cl)cc(C#N)c2)c2occc2c1=O)c1cc2c(cc1C)OC(F)(F)O2 [Example 169],+++ (NAUC>70% of positive control)
3,Cc1c(N(C)C(=O)Cn2nc(-c3cc(F)cc(C#N)c3)c3occc3c2=O)ccc2c1OC(F)(F)O2 [Example 170],++ (NAUC 70-40% of positive control)
4,Cc1c(N(C)C(=O)Cn2nc(-c3cc(Cl)cc(C#N)c3)c3occc3c2=O)ccc2c1OC(F)(F)O2 [Example 171],+++ (NAUC>70% of positive control)
5,CCN(C(=O)Cn1nc(-c2cc(Cl)cc(C#N)c2)c2occc2c1=O)c1ccc2c(c1C)OC(F)(F)O2 [Example 172],+++ (NAUC>70% of positive control)
6,CCN(C(=O)Cn1nc(-c2cc(F)cc(C#N)c2)c2occc2c1=O)c1ccc2c(c1C)OC(F)(F)O2 [Example 173],+++ (NAUC>70% of positive control)
7,CCN(C(=O)Cn1nc(-c2cc(Cl)cc(Cl)c2)c2occc2c1=O)c1ccc2c(c1)OC(F)(F)O2 [Example 174],++ (NAUC 70-40% of positive control)
8,CCN(C(=O)Cn1nc(-c2cc(F)cc(F)c2)c2occc2c1=O)c1ccc2c(c1)OC(F)(F)O2 [Example 175],+++ (NAUC>70% of positive control)
9,CCN(C(=O)Cn1nc(-c2cc(F)cc(Cl)c2)c2occc2c1=O)c1ccc2c(c1)OC(F)(F)O2 [Example 176],+++ (NAUC>70% of positive control)
10,CCN(C(=O)Cn1nc(-c2cc(F)cc(C#N)c2)c2occc2c1=O)c1ccc2c(c1)OC(F)(F)O2 [Example 177],+++ (NAUC>70% of positive control)
11,Cc1cc2c(cc1N(C)C(=O)Cn1nc(-c3cc(F)cc(C#N)c3)c3occ(C(F)(F)F)c3c1=O)OC(F)(F)O2 [Example 178],+ (NAUC<40% of positive control)
12,CCN(C(=O)Cn1nc(-c2cc(F)cc(C#N)c2)c2occ(C(F)(F)F)c2c1=O)c1cc2c(cc1C)OC(F)(F)O2 [Example 179],++ (NAUC 70-40% of positive control)
13,"CN(C(=O)Cn1nc(-c2cccc(C#N)c2)c2oc(C(F)F)cc2c1=O)c1ccc2c(c1)OC(F)(F)O2 [Example 180, 2-(7-(3-cyanophenyl)-2-(difluoromethyl)-4-oxofuro[2,3-d]pyridazin-5(4H)-yl)-N-(2,2-difluorobenzo[d][1,3]dioxol-5-yl)-N-methylacetamide]",+++ (NAUC>70% of positive control)
14,"CN(C(=O)Cn1nc(-c2cccc(Cl)c2)c2oc(NC(=O)OC(C)(C)C)cc2c1=O)c1ccc2c(c1)OC(F)(F)O2 [Example 181, tert-butyl (7-(3-chlorophenyl)-5-(2-((2,2-difluorobenzo[d][1,3]dioxol-5-yl)(methyl)amino)-2-oxoethyl)-4-oxo-4,5-dihydrofuro[2,3-d]pyridazin-2-yl)carbamate]",+++ (NAUC>70% of positive control)
15,"CN(C(=O)Cn1nc(-c2cccc(C#N)c2)c2oc(CN3CCCCC3)cc2c1=O)c1ccc2c(c1)OC(F)(F)O2 [Example 182, 2-(7-(3-cyanophenyl)-4-oxo-2-(piperidin-1-ylmethyl)furo[2,3-d]pyridazin-5(4H)-yl)-N-(2,2-difluorobenzo[d][1,3]dioxol-5-yl)-N-methylacetamide]",+++ (NAUC>70% of positive control)
16,"CC(O)c1cc2c(=O)n(CC(=O)N(C)c3ccc4c(c3)OC(F)(F)O4)nc(-c3cccc(Cl)c3)c2o1 (centres unmarked) [Example 183, 2-(7-(3-chlorophenyl)-2-(1-hydroxyethyl)-4-oxofuro[2,3-d]pyridazin-5(4H)-yl)-N-(2,2-difluorobenzo[d][1,3]dioxol-5-yl)-N-methylacetamide]",+++ (NAUC>70% of positive control)
17,"CN(C(=O)Cn1nc(-c2cccc(Cl)c2)c2oc(C(C)(C)O)cc2c1=O)c1ccc2c(c1)OC(F)(F)O2 [Example 184, 2-(7-(3-chlorophenyl)-2-(2-hydroxypropan-2-yl)-4-oxofuro[2,3-d]pyridazin-5(4H)-yl)-N-(2,2-difluorobenzo[d][1,3]dioxol-5-yl)-N-methylacetamide]",+++ (NAUC>70% of positive control)
18,CN(C(=O)Cn1nc(-c2cccc(Cl)c2)c2oc(C(F)F)cc2c1=O)c1ccc2c(c1)OC(F)(F)O2 [Example 185],+++ (NAUC>70% of positive control)
19,CCN(C(=O)Cn1nc(-c2cccc(Cl)c2)c2oc(C(F)F)cc2c1=O)c1ccc2c(c1)OC(F)(F)O2 [Example 186],+++ (NAUC>70% of positive control)
20,CCN(C(=O)Cn1nc(-c2cccc(C#N)c2)c2oc(C(F)F)cc2c1=O)c1ccc2c(c1)OC(F)(F)O2 [Example 187],+++ (NAUC>70% of positive control)
21,CCN(C(=O)Cn1nc(-c2cc(C#N)cc(C(C)(C)C)c2)c2oc(C(F)F)cc2c1=O)c1ccc2c(c1)OC(F)(F)O2 [Example 188],+++ (NAUC>70% of positive control)
22,CCN(C(=O)Cn1nc(-c2cc(C)cc(C#N)c2)c2oc(C(F)F)cc2c1=O)c1ccc2c(c1)OC(F)(F)O2 [Example 189],+++ (NAUC>70% of positive control)
23,CCN(C(=O)Cn1nc(-c2cc(C#N)cc(OC)c2)c2oc(C(F)F)cc2c1=O)c1ccc2c(c1)OC(F)(F)O2 [Example 190],+++ (NAUC>70% of positive control)
24,CCN(C(=O)Cn1nc(-c2cc(C#N)cc(OCCO)c2)c2occc2c1=O)c1ccc2c(c1)OC(F)(F)O2 [Example 214],++ (NAUC 70-40% of positive control)

# Now from value to compound:
row,Corr Activity (NAUC),SMILES
1,+++ (NAUC>70% of positive control),CCN(C(=O)Cn1nc(-c2cc(F)cc(C#N)c2)c2oc(C(F)F)cc2c1=O)c1ccc2c(c1)OC(F)(F)O2 [Example 191]
2,+++ (NAUC>70% of positive control),CCN(C(=O)Cn1nc(-c2cc(Cl)cc(C#N)c2)c2oc(C(F)F)cc2c1=O)c1ccc2c(c1)OC(F)(F)O2 [Example 192]
3,+++ (NAUC>70% of positive control),Cc1cc2c(cc1N(C)C(=O)Cn1nc(-c3cc(Cl)cc(C#N)c3)c3oc(C(F)F)cc3c1=O)OC(F)(F)O2 [Example 193]
4,+++ (NAUC>70% of positive control),CCN(C(=O)Cn1nc(-c2cc(Cl)cc(C#N)c2)c2oc(C(F)F)cc2c1=O)c1cc2c(cc1C)OC(F)(F)O2 [Example 194]
5,++ (NAUC 70-40% of positive control),CCN(C(=O)Cn1nc(-c2cc(F)cc(C#N)c2)c2oc(C(F)F)cc2c1=O)c1ccc2c(c1C)OC(F)(F)O2 [Example 195]
6,++ (NAUC 70-40% of positive control),CCN(C(=O)Cn1nc(-c2cc(Cl)cc(C#N)c2)c2oc(C(F)F)cc2c1=O)c1ccc2c(c1C)OC(F)(F)O2 [Example 196]
7,+++ (NAUC>70% of positive control),CN(C(=O)Cn1nc(-c2cccc(C#N)c2)c2oc(C(F)F)cc2c1=O)c1ccc2c(c1F)OC(F)(F)O2 [Example 197]
8,++ (NAUC 70-40% of positive control),CCN(C(=O)Cn1nc(-c2cc(C#N)cc(C(F)F)c2)c2oc(C(F)F)cc2c1=O)c1ccc2c(c1)OC(F)(F)O2 [Example 198]
9,+ (NAUC<40% of positive control),CN(C(=O)Cn1nc(-c2cccc(C#N)c2)c2oc(CN3CCOCC3)cc2c1=O)c1ccc2c(c1)OC(F)(F)O2 [Example 199]
10,++ (NAUC 70-40% of positive control),CN(C(=O)Cn1nc(-c2cccc(C#N)c2)c2oc(CN3CCCC3)cc2c1=O)c1ccc2c(c1)OC(F)(F)O2 [Example 200]
11,+++ (NAUC>70% of positive control),CCN(C(=O)Cn1nc(-c2cccc(C#N)c2)c2oc(CN3CCCCC3)cc2c1=O)c1ccc2c(c1)OC(F)(F)O2 [Example 201]
12,+++ (NAUC>70% of positive control),CCN(C(=O)Cn1nc(-c2cccc(C#N)c2)c2oc(CN3CCOCC3)cc2c1=O)c1ccc2c(c1)OC(F)(F)O2 [Example 202]
13,+++ (NAUC>70% of positive control),CCN(C(=O)Cn1nc(-c2cccc(C#N)c2)c2oc(CN3CCCC3)cc2c1=O)c1ccc2c(c1)OC(F)(F)O2 [Example 203]
14,+++ (NAUC>70% of positive control),CN(C(=O)Cn1nc(-c2cccc(C#N)c2)c2oc(C(C)(C)O)cc2c1=O)c1ccc2c(c1)OC(F)(F)O2 [Example 204]
15,+++ (NAUC>70% of positive control),"CN(C(=O)Cn1nc(-c2cccc(Cl)c2)c2oc(C(=O)NC(C)(C)C)cc2c1=O)c1ccc2c(c1)OC(F)(F)O2 [Example 205, N-(tert-butyl)-7-(3-chlorophenyl)-5-(2-((2,2-difluorobenzo[d][1,3]dioxol-5-yl)(methyl)amino)-2-oxoethyl)-4-oxo-4,5-dihydrofuro[2,3-d]pyridazine-2-carboxamide]"
16,++ (NAUC 70-40% of positive control),CCN(C(=O)Cn1nc(-c2cccc(C#N)c2)c2oc(C(=O)NC3(C)CC3)cc2c1=O)c1ccc2c(c1)OC(F)(F)O2 [Example 206]
17,+++ (NAUC>70% of positive control),CCN(C(=O)Cn1nc(-c2cccc(C#N)c2)c2oc(C(=O)N3CCCC34CC4)cc2c1=O)c1ccc2c(c1)OC(F)(F)O2 [Example 207]
18,+++ (NAUC>70% of positive control),CCN(C(=O)Cn1nc(-c2cccc(C#N)c2)c2oc(C(=O)N(C)C(C)(C)C)cc2c1=O)c1ccc2c(c1)OC(F)(F)O2 [Example 208]
19,+ (NAUC<40% of positive control),CN(C(=O)Cn1nc(-c2cccc(Cl)c2)c2oc(C(=O)NCCO)cc2c1=O)c1ccc2c(c1)OC(F)(F)O2 [Example 212]
20,+ (NAUC<40% of positive control),"CN(C(=O)Cn1nc(-c2cc(C#N)cc(C(=O)O)c2)c2occc2c1=O)c1ccc2c(c1)OC(F)(F)O2 [Example 213, 3-cyano-5-(5-(2-((2,2-difluorobenzo[d][1,3]dioxol-5-yl)(methyl)amino)-2-oxoethyl)-4-oxo-4,5-dihydrofuro[2,3-d]pyridazin-7-yl)benzoic acid]"
